{"source": "ChEMBL document CHEMBL1201862", "about": "“PubChem BioAssay data set” (2004)", "key": {"[1]": {"target": "T1, Leucine aminopeptidase (Plasmodium falciparum 3D7, UniProt Q8IL11)", "T1 sequence (Q8IL11 whole entry)": "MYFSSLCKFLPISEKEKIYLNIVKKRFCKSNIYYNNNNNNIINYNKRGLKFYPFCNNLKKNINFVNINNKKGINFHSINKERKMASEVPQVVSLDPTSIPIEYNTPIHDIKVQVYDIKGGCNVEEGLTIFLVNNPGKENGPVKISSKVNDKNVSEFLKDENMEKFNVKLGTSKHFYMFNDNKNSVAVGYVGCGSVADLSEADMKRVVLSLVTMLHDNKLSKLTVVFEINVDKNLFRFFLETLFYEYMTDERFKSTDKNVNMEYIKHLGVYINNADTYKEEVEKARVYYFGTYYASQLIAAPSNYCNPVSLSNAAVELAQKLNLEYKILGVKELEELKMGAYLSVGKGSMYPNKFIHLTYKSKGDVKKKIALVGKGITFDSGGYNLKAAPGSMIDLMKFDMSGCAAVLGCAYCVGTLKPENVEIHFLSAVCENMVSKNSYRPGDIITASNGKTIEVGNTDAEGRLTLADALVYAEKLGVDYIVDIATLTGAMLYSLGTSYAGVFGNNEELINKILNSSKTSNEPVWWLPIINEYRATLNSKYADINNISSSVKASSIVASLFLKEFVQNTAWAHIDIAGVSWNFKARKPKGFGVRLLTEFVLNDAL", "assay": "P. falciparum M17LAP inhibitors, primary screen, biochemical, fluorogenic H-Leu-NHMec substrate, 1536-well (AID 1619)", "format": "functional"}, "[2]": {"assay": "cells", "format": "functional, cell-based"}, "[3]": {"assay": "cells", "format": "functional, cell-based", "remark": "listed apart in the source"}, "[4]": {"target": "Ion channel NompC (Danio rerio, UniProt Q7T1G6)", "sequence (Q7T1G6 whole entry)": "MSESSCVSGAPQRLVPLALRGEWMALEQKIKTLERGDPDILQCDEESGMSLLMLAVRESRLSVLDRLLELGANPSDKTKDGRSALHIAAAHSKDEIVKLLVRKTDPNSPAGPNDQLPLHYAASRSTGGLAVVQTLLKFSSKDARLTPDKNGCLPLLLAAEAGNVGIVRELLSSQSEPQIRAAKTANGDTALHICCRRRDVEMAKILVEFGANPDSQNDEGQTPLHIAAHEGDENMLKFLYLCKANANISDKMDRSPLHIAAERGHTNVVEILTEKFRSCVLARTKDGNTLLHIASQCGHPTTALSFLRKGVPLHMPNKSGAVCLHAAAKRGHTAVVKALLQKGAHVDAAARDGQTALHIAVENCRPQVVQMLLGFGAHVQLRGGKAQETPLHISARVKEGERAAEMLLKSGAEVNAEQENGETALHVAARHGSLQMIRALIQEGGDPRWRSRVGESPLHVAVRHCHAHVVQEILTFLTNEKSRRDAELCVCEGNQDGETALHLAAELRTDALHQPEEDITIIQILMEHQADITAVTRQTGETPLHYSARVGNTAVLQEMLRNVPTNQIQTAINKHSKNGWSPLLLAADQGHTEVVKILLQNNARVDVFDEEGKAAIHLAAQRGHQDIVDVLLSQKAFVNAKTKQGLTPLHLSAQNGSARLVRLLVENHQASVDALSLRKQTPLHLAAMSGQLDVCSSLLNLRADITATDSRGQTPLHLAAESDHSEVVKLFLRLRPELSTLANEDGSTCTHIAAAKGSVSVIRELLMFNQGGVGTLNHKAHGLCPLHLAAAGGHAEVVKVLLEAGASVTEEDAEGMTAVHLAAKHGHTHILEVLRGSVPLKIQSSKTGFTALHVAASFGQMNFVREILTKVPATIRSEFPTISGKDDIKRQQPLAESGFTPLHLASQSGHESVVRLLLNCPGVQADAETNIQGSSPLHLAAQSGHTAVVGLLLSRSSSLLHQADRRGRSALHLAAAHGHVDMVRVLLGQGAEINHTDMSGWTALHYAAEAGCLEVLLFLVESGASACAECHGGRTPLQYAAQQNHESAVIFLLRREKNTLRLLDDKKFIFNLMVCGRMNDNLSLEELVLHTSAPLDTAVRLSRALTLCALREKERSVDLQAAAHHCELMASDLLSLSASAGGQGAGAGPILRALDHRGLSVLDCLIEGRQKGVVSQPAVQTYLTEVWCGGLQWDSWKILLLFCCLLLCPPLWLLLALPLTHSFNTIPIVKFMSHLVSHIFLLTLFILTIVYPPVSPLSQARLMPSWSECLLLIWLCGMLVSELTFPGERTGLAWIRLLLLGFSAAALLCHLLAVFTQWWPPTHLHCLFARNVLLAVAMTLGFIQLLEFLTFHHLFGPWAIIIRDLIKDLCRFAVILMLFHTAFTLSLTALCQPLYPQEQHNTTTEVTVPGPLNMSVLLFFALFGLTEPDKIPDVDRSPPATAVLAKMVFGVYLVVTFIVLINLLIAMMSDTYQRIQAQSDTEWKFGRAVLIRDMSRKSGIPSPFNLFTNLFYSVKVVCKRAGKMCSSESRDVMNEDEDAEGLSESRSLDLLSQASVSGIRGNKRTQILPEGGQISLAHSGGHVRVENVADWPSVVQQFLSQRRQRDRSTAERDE", "assay": "Fluorescence counterscreen assay for TRPML3 agonists: dose response cell-based high-throughput screening assay to identify agonists of the transient receptor potential channel N1 (TRPN1). [Related pubchem assays: 1526, 1424, 1448 ]", "format": "functional"}, "[5]": {"target": "T2, Mucolipin-3 (Homo sapiens, UniProt Q8TDD5)", "T2 sequence (Q8TDD5 whole entry)": "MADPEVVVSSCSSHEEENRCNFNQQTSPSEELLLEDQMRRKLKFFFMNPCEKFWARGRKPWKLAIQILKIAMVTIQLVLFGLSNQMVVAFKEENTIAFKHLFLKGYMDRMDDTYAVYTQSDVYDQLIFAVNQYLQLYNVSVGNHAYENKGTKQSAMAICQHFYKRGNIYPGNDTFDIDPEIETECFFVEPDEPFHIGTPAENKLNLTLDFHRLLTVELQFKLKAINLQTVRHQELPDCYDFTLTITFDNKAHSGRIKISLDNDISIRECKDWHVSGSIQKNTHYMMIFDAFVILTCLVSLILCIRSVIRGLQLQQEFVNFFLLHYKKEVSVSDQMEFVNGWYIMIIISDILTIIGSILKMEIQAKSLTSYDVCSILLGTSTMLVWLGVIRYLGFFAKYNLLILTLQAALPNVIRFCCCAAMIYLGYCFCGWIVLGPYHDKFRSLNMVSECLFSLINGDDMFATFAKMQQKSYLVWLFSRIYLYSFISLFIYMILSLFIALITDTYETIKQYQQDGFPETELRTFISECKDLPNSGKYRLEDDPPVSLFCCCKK", "assay": "Dose response cell-based high-throughput screening assay for agonists of the transient receptor potential channel ML3 (TRPML3). [Related pubchem assays: 1526, 1424, 1448 ]", "format": "functional"}, "[6]": {"test_system": "H4", "assay": "Luminescence Cell-Based Dose Response HTS to Identify Activators of 5'UTR Stem-Loop Driven Prion Protein mRNA Translation in H4 Neuroglioblastoma Cells. [Related pubchem assays: 1829 (Project Summary), 1814 (Primary HTS)]", "format": "functional", "conditions": "Homo sapiens"}, "[7]": {"assay": "viability loss of HPDE-C7K cells – cell-based, fluorescence, HTS, primary screen (AID 431)", "format": "functional", "conditions": "Homo sapiens"}, "[8]": {"assay": "HPDE-C7 pancreatic duct cell viability loss – fluorescence, HTS (AID 430)", "format": "functional, cell-based", "conditions": "Homo sapiens"}, "[9]": {"assay": "Luminescence Cell-Based Dose Response HTS to Identify Activators of Luciferase Translation or Activity in H4 […] Cells. [Related pubchem assays: 1829 (Project Summary), 1814 (Primary HTS)]", "format": "functional"}, "[10]": {"assay": "Luminescence Cell-Based Dose Confirmation HTS to Identify Activators of 5'UTR Stem-Loop Driven Alpha-Synuclein mRNA Translation in H4 Neuroglioblastoma Cells. [Related pubchem assays: 1829 (Project Summary), 1814 (Primary HTS)]", "format": "functional"}, "[11]": {"target": "FAD-linked sulfhydryl oxidase ALR (Homo sapiens, UniProt P55789)", "sequence (P55789 whole entry)": "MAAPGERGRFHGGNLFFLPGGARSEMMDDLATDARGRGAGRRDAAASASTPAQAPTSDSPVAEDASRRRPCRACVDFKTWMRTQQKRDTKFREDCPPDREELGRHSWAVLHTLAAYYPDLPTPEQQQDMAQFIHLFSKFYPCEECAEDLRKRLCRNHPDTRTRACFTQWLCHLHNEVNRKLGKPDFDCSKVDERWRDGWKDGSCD", "assay": "ALR-catalysed DTT oxidation blockers – biochemical, H2O2 detection, luminescence, cherry-pick, dose response (AID 493248)"}, "[12]": {"target": "T3, Mannose-6-phosphate isomerase (Homo sapiens, UniProt P34949)", "T3 sequence (P34949 whole entry)": "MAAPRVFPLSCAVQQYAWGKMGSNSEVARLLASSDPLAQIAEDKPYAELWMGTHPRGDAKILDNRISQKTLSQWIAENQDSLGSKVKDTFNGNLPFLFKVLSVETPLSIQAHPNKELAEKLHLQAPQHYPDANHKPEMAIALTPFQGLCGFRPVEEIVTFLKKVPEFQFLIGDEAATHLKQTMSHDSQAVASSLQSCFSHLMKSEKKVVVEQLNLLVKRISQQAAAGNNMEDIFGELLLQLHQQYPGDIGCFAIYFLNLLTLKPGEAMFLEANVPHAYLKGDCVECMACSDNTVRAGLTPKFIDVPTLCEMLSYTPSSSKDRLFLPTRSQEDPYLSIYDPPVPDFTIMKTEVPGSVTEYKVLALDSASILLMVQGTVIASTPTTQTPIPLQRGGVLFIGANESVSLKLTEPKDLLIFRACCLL", "assay": "MPI inhibition at elevated mannose 6-phosphate – biochemical, fluorescence intensity, high mannose 6-phosphate, primary screen (AID 1220)"}, "[13]": {"assay": "viability loss in human Jurkat cells – cell-based, luminescence, cytotoxicity control for P. falciparum gametocyte viability project, dose response (AID 1117277);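 also: potency reflects loss of cellular ATP meaning fewer viable cells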", "format": "functional"}, "[14]": {"assay": "viability inhibitors of stage V gametocytes – luminescence, dose response (AID 1117278);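 also: gametocytes exposed to compound for 24 hours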", "format": "functional, cell-based"}, "[15]": {"target": "T3, Mannose-6-phosphate isomerase", "assay": "MPI enzyme activity inhibition – biochemical, fluorescence intensity, coupled assay, primary screen (AID 1209)"}}, "note": "Active and inactive are the calls of the source.", "data": [{"molecule": "Cc1nc(NS(=O)(=O)c2ccccc2)sc1C(=O)NN", "values": [{"measurement": "IC50", "setting": "[1]", "value": "114 µM (active)"}]}, {"molecule": "CC(C)CC1NC(=O)N(Cc2cc(=O)n3ccsc3n2)C1=O", "note": "(stereo not given)", "values": [{"measurement": "EC50", "setting": "[2]", "value": "> 350 µM (not active)"}, {"measurement": "EC50", "setting": "[3]", "value": "> 350 µM (not active)"}]}, {"molecule": "CCCN(CCC)S(=O)(=O)c1ccc(C(=O)N2CCCc3ccccc32)cc1", "values": [{"measurement": "EC50", "setting": "[4]", "value": "> 29.9 µM (not active)"}, {"measurement": "EC50", "setting": "[5]", "value": "1.33 µM (active)"}]}, {"molecule": "CC1(C)Cc2c(c(N3CCOCC3)nc3snc(N)c23)CO1", "values": [{"measurement": "EC50", "setting": "[6]", "value": "> 120 µM (not active)"}, {"measurement": "EC50", "setting": "[7]", "value": "7.17 µM (active)"}, {"measurement": "EC50", "setting": "[8]", "value": "7.52 µM (active)"}, {"measurement": "EC50", "setting": "[9]", "value": "> 120 µM (not active)"}, {"measurement": "EC50", "setting": "[10]", "value": "40.9 µM (active)"}]}, {"molecule": "Cc1cccc(Nc2ncnc3[nH]cnc23)c1", "values": [{"measurement": "IC50", "setting": "[1]", "value": "71.4 µM (active)"}, {"measurement": "AC50", "setting": "[11]", "value": "75.3 µM (active)"}]}, {"molecule": "N#Cc1c(NCCCO)nc(NCc2ccccc2)c2c1CCN(Cc1ccccc1)C2", "values": [{"measurement": "EC50", "setting": "[7]", "value": "11.9 µM (active)"}, {"measurement": "EC50", "setting": "[8]", "value": "19.8 µM (active)"}, {"measurement": "IC50", "setting": "[12]", "value": "> 50 µM (not active)"}]}, {"molecule": "CC(C)CN1CCN(Cc2nc(C(C)C)cs2)CC1CCO", "note": "(stereo not given)", "values": [{"measurement": "IC50", "setting": "[13]", "value": "> 83.3 µM (inactive)"}, {"measurement": "IC50", "setting": "[14]", "value": "> 109 µM (inactive)"}]}, {"molecule": "N#Cc1c(N)n(-c2ccc(O)cc2)c2nc3ccccc3nc12", "values": [{"measurement": "IC50", "setting": "[13]", "value": "> 83.4 µM (inactive)"}, {"measurement": "IC50", "setting": "[14]", "value": "> 109 µM (inactive)"}]}, {"molecule": "Cc1c(NC(=O)CSc2ccccc2F)c(=O)n(-c2ccccc2)n1C", "values": [{"measurement": "IC50", "setting": "[15]", "value": "> 50 µM (not active)"}]}]}
